Results taken from patent US10316038B2, “Pyrrolopyrimidine ITK inhibitors for treating inflammation and cancer” (ACLARIS THERAPEUTICS, INC., priority 2017, dated 2019).
Read-outs that look alike come from different tables or passages of the source.

How the values were obtained:
[1] = system: ITK phosphorylation of its substrate, PLCγ1, at Y783; experiment: ITK target modulation assay (phospho-Y783 PLCγ1 immunoblot in Jurkat T cells); type: cell-based; conditions: 2 hours compound, CD3/CD28 Dynabeads stimulation 100 sec, anti-phospho-Y783 PLCγ1 immunoblot, read-out: PLC-γ Inhibition IC50
Protocol: Target modulation was based upon the ability of a compound to inhibit ITK phosphorylation of its substrate, PLCγ1, at […]. Human Jurkat T cells were placed in snap-cap polypropylene tubes at 4 million per tube in 800 μL medium (RPMI1640 with 10% heat inactivated serum and […] 2-mercaptoethanol and supplemented with glutamine/penicillin/streptomycin). Compounds were added as 100 μL of 10× working stock solutions in medium with 1% DMSO (or medium with 1% DMSO for controls) and placed in a 37° C. incubator for 2 hours. Stimulation was carried out using CD3/CD28 Dynabeads to activate the T cell receptor and mimic antigen presenting cells. Beads were added for 100 sec at a ratio of 1 bead per cell, in 100 μL medium (or medium alone for unstimulated control). Starting at 70 sec, cells and beads were pelleted in a microfuge for 15 sec, the supernatant aspirated, and 50 μL lysis buffer was added per tube and mixed with the pellet at the 100 sec time point. Tubes were placed on a rotator for 30 min at 4° C., and cell debris was pelleted in a microfuge. Supernatant was mixed 1:1 with 2× Sample Buffer and subjected to SDS-polyacrylamide gel electrophoresis. After transfer to nitrocellulose, immunoblotting was done with anti-phospho-[…] PLCγ1 antibody. Immunoblots were visualized with ECL using horseradish peroxidase conjugated secondary antibody.

[2] = molecular target: T1, ITK (Homo sapiens, UniProt Q08881); experiment: ITK inhibitor binding potency (LanthaScreen competitive binding assay); conditions: TR-FRET competitive binding, 10 nM ITK, 50 nM kinase tracer-236; pre-incubation condition not given; read-out: ITK Inhibition IC50
T1 sequence (Q08881 1-620): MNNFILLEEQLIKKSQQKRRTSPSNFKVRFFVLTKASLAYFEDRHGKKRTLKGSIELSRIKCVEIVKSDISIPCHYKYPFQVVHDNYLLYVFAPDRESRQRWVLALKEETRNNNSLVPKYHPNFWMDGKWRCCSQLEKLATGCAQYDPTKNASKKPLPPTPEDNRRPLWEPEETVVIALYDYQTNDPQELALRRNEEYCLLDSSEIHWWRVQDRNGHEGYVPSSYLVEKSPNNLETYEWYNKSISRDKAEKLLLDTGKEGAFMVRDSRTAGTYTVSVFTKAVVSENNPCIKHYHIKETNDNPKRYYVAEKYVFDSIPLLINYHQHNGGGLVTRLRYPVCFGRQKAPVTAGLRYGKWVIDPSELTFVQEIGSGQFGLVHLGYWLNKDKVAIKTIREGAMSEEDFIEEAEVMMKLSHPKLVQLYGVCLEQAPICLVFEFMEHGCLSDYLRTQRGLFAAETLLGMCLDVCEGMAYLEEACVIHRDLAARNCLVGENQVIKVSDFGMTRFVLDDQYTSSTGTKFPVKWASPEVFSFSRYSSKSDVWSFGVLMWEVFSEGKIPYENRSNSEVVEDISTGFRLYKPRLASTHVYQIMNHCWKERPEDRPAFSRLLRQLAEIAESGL
Text: The ability of candidate compounds to interact with ITK is quantitated by a competitive binding assay using the LanthaScreen technology developed by Life Technologies. This assay is based on the binding of a proprietary, Alexa Fluor™ 647-labeled, ATP-competitive kinase inhibitor (kinase tracer-236) to the ITK expression construct in the presence of a Europium-conjugated antibody, resulting in a FRET (fluorescence resonance energy transfer) signal. Displacement of the kinase tracer by compound results in a lower emission ratio upon excitation of the Europium chelate. Candidate compounds are designed as potential irreversible inhibitors of ITK, capable of ligating to an active site cysteine residue resulting in time dependent covalent binding. The time dependent nature of irreversible inhibition is investigated by performing the binding assay with and without a pre-incubation of compound and ITK. […] The inhibitory potency of candidate compounds is measured in 20 mM HEPES pH 7.5, 10 mM MgCl2, 0.01% BSA, 0.0005% Tween-20, and 2% DMSO in the presence of 10 nM ITK, 2 nM Eu-anti-GST antibody, and 50 nM kinase tracer-236 using a 384-well plate format. Background signal is defined in the absence of ITK and uninhibited signal is defined in the presence of vehicle (2% DMSO) alone. Compounds were evaluated in an 11 point dose-response ranging from 20 uM to 0.34 nM. The binding assays are performed under two preincubation conditions to evaluate time dependence of inhibition. For the pre-incubation assay, ITK and Eu-anti-GST antibody are pre-incubated with compound or vehicle for two hours prior to the addition of kinase tracer. The non-preincubated assay is run under conditions where ITK and Eu-anti-GST antibody are added to a mixture of compound and kinase tracer. IC50 values of compounds are determined using a 4 parameter logistical fit of emission ratio as a function of the concentration of compound.

| IC50 ([1]; Homo sapiens, Jurkat, 2 h) [nM] | IC50 [2] [nM] | IC50 ([1]; Human Jurkat T cells) [nM] | SMILES |
| --- | --- | --- | --- |
| ≤ 1000 | ≤ 100 | – | C=CC(=O)Nc1cc(OC)cc(-c2cnc3[nH]cc(-c4ccnc(C)c4)c3c2)c1 [Example 28, N-(3-methoxy-5-(3-(2-methyl-pyridin-4-yl)-1H-pyrrolo[2,3-b]-pyridin-5-yl)-phenyl)acrylamide] |
| 1000 to 5000 | ≤ 100 | – | C=CC(=O)Nc1cc(OC(F)(F)F)cc(-c2cnc3[nH]cc(-c4cccc(C#N)c4)c3c2)c1 [Example 47, N-(3-(3-(3-cyano-phenyl)-1H-pyrrolo[2,3-b]-pyridin-5-yl)-5-(trifluoromethoxy)-phenyl)acrylamide] |
| ≤ 1000 | ≤ 100 | – | CN(C)C/C=C/C(=O)Nc1cncc(-c2cnc3[nH]cc(-c4cccc(C#N)c4)c3c2)c1 [Example 20, (E)-N-(5-(3-(3-cyanophenyl)-1H-pyrrolo[2,3-b]pyridin-5-yl)pyridin-3-yl)-4-(dimethyl-amino)but-2-enamide] |
| ≤ 1000 | ≤ 100 | – | COc1cc(-c2cnc3[nH]cc(-c4cccc(C#N)c4)c3c2)cc(N(C)C(=O)/C=C/CN(C)C)c1 [Example 64] |
| ≤ 1000 | ≤ 100 | – | C=CC(=O)Nc1cc(-c2cnc3[nH]cc(-c4cncnc4)c3c2)cc(C(F)(F)F)c1 [Example 67, N-(3-(3-(pyrimidin-5-yl)-1H-pyrrolo-[2,3-b]pyridin-5-yl)-5-(trifluoro-methyl)phenyl)-acrylamide] |
| > 5000 | > 1000 | – | CN(C)C/C=C/C(=O)Nc1cc(-c2cnc3c(c2)c(-c2cccc(C#N)c2)cn3C)cc(C(F)(F)F)c1 [Example 70] |
| > 5000 | ≤ 100 | – | CN(C)C/C=C/C(=O)Nc1cccc(-c2cnc3[nH]cc(-c4cn(C)c(=O)c5[nH]ccc45)c3c2)c1 [Example 6, (E)-4-(dimethyl-amino)-N-(3-(3-(6-methyl-7-oxo-6,7-dihydro-1H-pyrrolo[2,3-c]-pyridin-4-yl)-1H-pyrrolo[2,3-b]-pyridin-5-yl)-phenyl)but-2-enamide] |
| ≤ 1000 | ≤ 100 | – | COc1cc(NC(=O)/C=C/CN(C)C)cc(-c2cnc3[nH]cc(-c4ccnc5[nH]ccc45)c3c2)c1 [Example 31, (E)-N-(3-(1H,1′H-[3,4′-bipyrrolo[2,3-b]pyridin]-5-yl)-5-methoxyphenyl)-4-(dimethylamino)-but-2-enamide] |
| ≤ 1000 | ≤ 100 | – | C=CC(=O)N(C)c1cncc(-c2cnc3[nH]cc(-c4cccc(C#N)c4)c3c2)c1 [Example 66, N-(5-(3-(3-cyano-phenyl)-1H-pyrrolo[2,3-b]-pyridin-5-yl)-pyridin-3-yl)-N-methylacrylamide] |
| ≤ 1000 | ≤ 100 | – | COc1cc(NC(=O)/C=C/CN(C)C)cc(-c2cnc3[nH]cc(-c4ccncc4)c3c2)c1 [Example 53, (E)-4-(dimethyl-amino)-N-(3-methoxy-5-(3-(pyridin-4-yl)-1H-pyrrolo[2,3-b]pyridin-5-yl)phenyl)but-2-enamide] |
| ≤ 1000 | ≤ 100 | – | Cc1cc(-c2c[nH]c3ncc(-c4cccc(NC(=O)/C=C/CN(C)C)c4)cc23)ccn1 [Example 48, (E)-4-(dimethyl-amino)-N-(3-(3-(2-methylpyridin-4-yl)-1H-pyrrolo-[2,3-b]pyridin-5-yl)phenyl)but-2-enamide] |
| > 5000 | ≤ 1000 | – | C=CC(=O)Nc1cc(-c2cnc3[nH]cc(-c4cccc(C)c4)c3c2)cc(C(F)(F)F)c1 [Example 59, N-(3-(3-(m-tolyl)-1H-pyrrolo[2,3-b]-pyridin-5-yl)-5-(trifluoromethyl)-phenyl)acrylamide] |
| – | ≤ 100 | ≤ 1000 | CN(C)C/C=C/C(=O)Nc1cncc(-c2cnc3[nH]cc(-c4ccnc(C#N)c4)c3c2)c1 [Example 36, (E)-N-(5-(3-(2-cyanopyridin-4-yl)-1H-pyrrolo-[2,3-b]pyridin-5-yl)pyridin-3-yl)-4-(dimethyl-amino)but-2-enamide] |
| 1000 to 5000 | ≤ 1000 | – | CN(C)C/C=C/C(=O)Nc1cc(-c2cnc3[nH]cc(-c4ccnc5[nH]ccc45)c3c2)cc(C(F)(F)F)c1 [Example 54, (E)-N-(3-(1H,1′H-[3,4′-bipyrrolo-[2,3-b]pyridin]-5-yl)-5-(trifluoro-methyl)phenyl)-4-(dimethylamino)-but-2-enamide] |
| ≤ 1000 | ≤ 100 | – | COc1cc(NC(=O)/C=C/CN(C)C)cc(-c2cnc3[nH]cc(-c4ccnc(F)c4)c3c2)c1 [Example 38, (E)-4-(dimethyl-amino)-N-(3-(3-(2-fluoropyridin-4-yl)-1H-pyrrolo-[2,3-b]pyridin-5-yl)-5-methoxy-phenyl)but-2-enamide] |
| ≤ 1000 | ≤ 100 | – | C=CC(=O)Nc1cc(-c2cnc3[nH]cc(-c4cnc(OC)nc4)c3c2)cc(C(F)(F)F)c1 [Example 68, N-(3-(3-(2-methoxy-pyrimidin-5-yl)-1H-pyrrolo[2,3-b]pyridin-5-yl)-5-(trifluoromethyl)-phenyl)acrylamide] |
| ≤ 1000 | ≤ 100 | – | CN(C)C/C=C/C(=O)Nc1cc(-c2cnc3[nH]cc(-c4ccnc(C#N)c4)c3c2)cc(C(F)(F)F)c1 [Example 40, (E)-N-(3-(3-(2-cyanopyridin-4-yl)-1H-pyrrolo-[2,3-b]pyridin-5-yl)-5-(trifluoro-methyl)phenyl)-4-(dimethyl-amino)but-2-enamide] |
| 1000 to 5000 | ≤ 100 | – | CNc1nccc(-c2c[nH]c3ncc(-c4cccc(NC(=O)/C=C/CN(C)C)c4)cc23)n1 [Example 27, (E)-4-(dimethyl-amino)-N-(3-(3-(2-(methylamino)-pyrimidin-4-yl)-1H-pyrrolo[2,3-b]pyridin-5-yl)phenyl)but-2-enamide] |
| ≤ 1000 | ≤ 100 | – | C=CC(=O)Nc1cncc(-c2cnc3[nH]cc(-c4ccnc(C#N)c4)c3c2)c1 [Example 34, N-(5-(3-(2-cyano-pyridin-4-yl)-1H-pyrrolo[2,3-b]-pyridin-5-yl)-pyridin-3-yl)-acrylamide] |
| > 5000 | ≤ 1000 | – | C=CC(=O)Nc1cncc(-c2cnc3[nH]cc(-c4cccc(C(F)(F)F)c4)c3c2)c1 [Example 62, N-(5-(3-(3-(trifluoromethyl)-phenyl)-1H-pyrrolo[2,3-b]-pyridin-5-yl)-pyridin-3-yl)-acrylamide] |
| ≤ 1000 | ≤ 100 | – | C=CC(=O)Nc1cc(-c2cnc3[nH]cc(-c4ccnc(C)c4)c3c2)cc(C(F)(F)F)c1 [Example 23, N-(3-(3-(2-methyl-pyridin-4-yl)-1H-pyrrolo[2,3-b]-pyridin-5-yl)-5-(trifluoromethyl)-phenyl)acrylamide] |
| > 5000 | ≤ 100 | – | C=CC(=O)Nc1cc(F)cc(-c2cnc3[nH]cc(-c4cccc(C#N)c4)c3c2)c1 [Example 69, N-(3-(3-(3-cyano-phenyl)-1H-pyrrolo[2,3-b]-pyridin-5-yl)-5-fluorophenyl)-acrylamide] |
